{"source": "paper PMC10123100", "about": "“Single-molecule visualization of stalled replication-fork rescue by the Escherichia coli Rep helicase” (Nucleic Acids Research, 2023)", "key": {"[1]": {"molecular_target": "T1, Rep helicase (His6-Rep WT) (Escherichia coli, UniProt P09980)", "T1 construct": "full-length with His6 tag kept, plasmid pZX2198, expressed in E. coli BL21(DE3)/pLysS; monomer, multimer on long ssDNA", "T1 sequence (P09980 whole entry)": "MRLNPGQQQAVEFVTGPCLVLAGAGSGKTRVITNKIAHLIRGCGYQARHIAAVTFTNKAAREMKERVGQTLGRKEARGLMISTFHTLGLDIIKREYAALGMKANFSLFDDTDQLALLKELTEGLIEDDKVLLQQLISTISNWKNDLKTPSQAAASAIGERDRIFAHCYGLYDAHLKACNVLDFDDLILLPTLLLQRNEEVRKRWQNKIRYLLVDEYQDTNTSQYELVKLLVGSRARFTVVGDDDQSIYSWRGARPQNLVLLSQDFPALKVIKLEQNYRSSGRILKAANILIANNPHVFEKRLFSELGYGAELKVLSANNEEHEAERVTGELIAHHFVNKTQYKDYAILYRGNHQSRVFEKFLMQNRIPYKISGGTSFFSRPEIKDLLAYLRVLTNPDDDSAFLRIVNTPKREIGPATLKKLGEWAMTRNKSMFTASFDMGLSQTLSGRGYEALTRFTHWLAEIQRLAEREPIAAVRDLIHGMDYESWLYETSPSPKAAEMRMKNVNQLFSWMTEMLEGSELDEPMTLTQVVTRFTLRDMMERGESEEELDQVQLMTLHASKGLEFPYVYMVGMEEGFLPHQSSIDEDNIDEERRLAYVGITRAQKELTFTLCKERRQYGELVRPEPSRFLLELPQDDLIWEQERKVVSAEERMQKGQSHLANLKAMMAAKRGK", "experiment": "SPR, nucleotide-stimulated dissociation of Rep from immobilised dT35", "type": "binding", "settings": "200 uM ATP, 20 nM Rep, biotinylated dT35, Mg2+, pH 7.6, 20 C"}, "[2]": {"molecular_target": "T1, Rep helicase (His6-Rep WT)", "experiment": "SPR, nucleotide-stimulated dissociation of Rep from immobilised dT35", "type": "binding", "settings": "200 uM ATP, 20 nM Rep, biotinylated dT35, Mg2+, pH 7.6, 20 C", "remark": "listed apart in the source"}}, "data": [{"smiles": "Nc1ncnc2c1ncn2[C@@H]1O[C@H](COP(=O)(O)OP(=O)(O)OP(=O)(O)O)[C@@H](O)[C@H]1O", "note": "[ATP]", "values": [{"measurement": "SPR, nucleotide-stimulated dissociation of Rep from immobilised dT35", "setting": "[1]", "value": "ATP, but not ADP or AMP-PNP, stimulated the dissociation of Rep WT and Rep ΔC33"}, {"measurement": "SPR, nucleotide-stimulated dissociation of Rep from immobilised dT35", "setting": "[2]", "value": "ATP, but not ADP or AMP-PNP, stimulated the dissociation of Rep WT and Rep ΔC33"}]}]}
